This note sets out measurements from US9125805B2, “Stable formulations for parenteral injection of small molecule drugs” (Xeris Pharmaceuticals, Inc., priority 2012, dated 2015).

One data set in a line: physchem. The following applies: organic solvent or mixture, thermodynamic from solid.

Converted amounts (≈) assume the structure as drawn. Where two headings read alike, the source gives them in different places. Some results are limits rather than exact numbers.

Broadly, the solubility is how much of the substance goes into solution per volume.

Regarding `CC(=O)Oc1ccccc1C(=O)O` [Acetylsalicylic acid], the solubility in “physchem” (Solubility (class)) fell in the range of 30 to 100 mg/mL (≈ 167 to 555 mM).

As for Albuterol sulfate, the “Solubility (class)” value is given as “Slightly soluble” (solvent 70:30 (v/v) DMSO:NMP); “Practically insoluble” (solvent Benzyl Benzoate); “Slightly soluble” (solvent DMSO); “Practically insoluble” (solvent NMP); “Practically insoluble” (solvent PEG 300); “Practically insoluble” (solvent Triacetin). Moreover, the solubility is 5 mg/mL (solvent 70:30 (v/v) DMSO:NMP); under 0.1 mg/mL (solvent Benzyl Benzoate); 5 mg/mL (solvent DMSO); under 0.1 mg/mL (solvent NMP); under 0.1 mg/mL (solvent PEG 300); under 0.1 mg/mL (solvent Triacetin).

As to `CO[C@H]1/C=C/O[C@@]2(C)Oc3c(C)c(O)c4c(O)c(c(/C=N/N5CCN(C)CC5)c(O)c4c3C2=O)NC(=O)/C(C)=C\C=C\[C@H](C)[C@H](O)[C@@H](C)[C@@H](O)[C@@H](C)[C@H](OC(C)=O)[C@@H]1C` [Rifampicin], the solubility in the data set “physchem” (Solubility (class)) was in the range of 30 to 100 mg/mL (≈ 36.5 to 122 mM).

As to `OC(Cn1cncn1)(Cn1cncn1)c1ccc(F)cc1F` [Fluconazole], the solubility in the data set “physchem” (Solubility (class), solvent PEG 300) is 30 to 100 mg/mL (≈ 98 to 327 mM); in the data set “physchem” (Solubility, solvent 70:30 (v/v) DMSO:NMP), 850 mg/mL (≈ 2780 mM); in “physchem” (Solubility, solvent Benzyl Benzoate) it was 5 mg/mL (≈ 16.3 mM); in “physchem” (Solubility, solvent DMSO), 900 mg/mL (≈ 2940 mM); in the data set “physchem” (Solubility, solvent NMP), 800 mg/mL (≈ 2610 mM); in “physchem” (Solubility, solvent PEG 300), 50 mg/mL (≈ 163 mM). In “physchem” (Solubility, solvent Triacetin), the solubility was determined as 5 mg/mL (≈ 16.3 mM). The “Solubility (class)” value is, setting by setting: (solvent 70:30 (v/v) DMSO:NMP) “Freely soluble”; (solvent Benzyl Benzoate) “Slightly soluble”; (solvent DMSO) “Freely soluble”; (solvent NMP) “Freely soluble”; (solvent Triacetin) “Slightly soluble”.

Turning to `O=C(O)c1cc(=O)c2c(OCC(O)COc3cccc4oc(C(=O)O)cc(=O)c34)cccc2o1` [Cromolyn sodium], in “physchem” (Solubility (class)), the solubility was 30 to 100 mg/mL.

For `NC[C@H]1O[C@H](O[C@H]2[C@H](O)[C@@H](O[C@H]3O[C@H](CO)[C@@H](O)[C@H](N)[C@H]3O)[C@H](N)C[C@@H]2N)[C@H](N)C[C@@H]1O` [Tobramycin], the solubility in the data set “physchem” (Solubility) was under 0.1 mg/mL.
